Measured values reported in ChEMBL document CHEMBL3997771 (Eur J Med Chem, 2017).
Calls of active or inactive are those of the source. The rule behind the calls is not given here.

Experiments:
HT-29 = experiment: Cytotoxicity against human HT-29 cells assessed as growth inhibition after 72 hrs by MTT assay; assay type: functional, cell-based; conditions: HT-29, 72 h
MCF7 = experiment: Cytotoxicity against human MCF7 cells assessed as growth inhibition after 72 hrs by MTT assay; assay type: functional, cell-based; conditions: MCF7, 72 h
HEK293 = experiment: Cytotoxicity against HEK293 cells assessed as growth inhibition after 72 hrs by MTT assay; assay type: cell-based; conditions: Homo sapiens, HEK293, 72 h
[1] = Selectivity index, ratio of IC50 for HEK293 cells to IC50 for human HT-29 cells; assay type: functional
[2] = Selectivity index, ratio of IC50 for HEK293 cells to IC50 for human MCF7 cells; assay type: functional
Ovis aries [3] = species: Ovis aries; experiment: Inhibition of lamb brain tubulin self assembly assessed as decrease in microtubule formation at 10 uM after 10 mins by turbidimetry/spectrometry
[4] = Inhibition of lamb brain tubulin self assembly assessed as decrease in microtubule formation after 10 mins by turbidimetry/spectrometry; design: species or system Ovis aries
Ovis aries [5] = species: Ovis aries; experiment: Induction of abnormal lamb brain tubulin polymer formation at 50 uM after 10 mins by turbidimetry
Ovis aries [6] = species: Ovis aries; experiment: Induction of abnormal lamb brain tubulin polymer formation at 50 uM by uranyl acetate staining-based transmission electron microscopy
Ovis aries [7] = species: Ovis aries; experiment: Binding affinity to lamb brain tubulin after 15 mins by fluorimetric titration method
A549 [8] = experiment: Cytotoxicity against human A549 cells assessed as growth inhibition after 72 hrs by MTT assay; assay type: functional, cell-based; conditions: A549, 72 h
[9] = Selectivity index, ratio of IC50 for HEK293 cells to IC50 for human A549 cells; assay type: functional
Ovis aries [10] = species: Ovis aries; experiment: Induction of abnormal lamb brain tubulin polymer formation at 10 uM after 10 mins by turbidimetry
A549 [11] = experiment: Induction of microtubule depolymerization in human A549 cells at 100 nM after 4 hrs by immunofluorescence microscopic method; assay type: cell-based
Ovis aries [12] = species: Ovis aries; experiment: Inhibition of lamb brain tubulin self assembly assessed as decrease in microtubule formation at 0.1 uM by uranyl acetate staining-based transmission electron microscopy
Ovis aries [13] = species: Ovis aries; experiment: Binding affinity to lamb brain tubulin at 10 uM by fluorimetric titration method
Ovis aries [14] = species: Ovis aries; experiment: Binding affinity to lamb brain tubulin-colchicine complex at 20 uM by fluorimetric titration method
A549 [15] = experiment: Cell cycle arrest in human A549 cells assessed as accumulation at G2/M phase at IC50 after 24 hrs by propidium iodide staining-based flow cytometric method; assay type: functional

| SMILES | IC50 (HT-29) [nM] | IC50 (MCF7) [nM] | IC50 (HEK293) [nM] | Ratio IC50 [1] | Ratio IC50 [2] | inhibition (Ovis aries [3]) | IC50 [4] [nM] | Activity (Ovis aries [5]) | Activity (Ovis aries [6]) | Kapp (Ovis aries [7]) [×10⁴ /M] | IC50 (A549 [8]) [nM] | Ratio IC50 [9] | Activity (Ovis aries [10]) | Activity (A549 [11]) | inhibition (Ovis aries [12]) | Activity (Ovis aries [13]) | Activity (Ovis aries [14]) | Activity (A549 [15]) [%] |
| --- | --- | --- | --- | --- | --- | --- | --- | --- | --- | --- | --- | --- | --- | --- | --- | --- | --- | --- |
| CCCCCCCC(=O)N[C@H]1CCc2cc(OC)c(OC)c(OC)c2-c2ccc(OC)c(=O)cc21 | 1.69 | 23 | 18.9 | 11.2 | 0.8 | 80% | 1080 | Active | Active | 5.2 | 133 | 0.14 |  |  |  |  |  |  |
| CCCCCCCCCCCC(=O)N[C@H]1CCc2cc(OC)c(OC)c(OC)c2-c2ccc(OC)c(=O)cc21 | 0.27 | 0.53 | 0.23 | 0.9 | 0.4 |  | 1210 | Active | Active | 19 | 71.9 | <0.1 | Active |  |  |  |  |  |
| CCCCCCCCCCCCCCCC(=O)N[C@H]1CCc2cc(OC)c(OC)c(OC)c2-c2ccc(OC)c(=O)cc21 | 184 | 720 | 244 | 1.3 | 0.3 |  |  |  |  |  |  |  |  |  |  |  |  |  |
| CCCCCCCCCCCCC(=O)N[C@H]1CCc2cc(OC)c(OC)c(OC)c2-c2ccc(OC)c(=O)cc21 | 7 | 6.8 | 1.5 | 0.2 | 0.2 |  |  |  |  |  |  |  |  |  |  |  |  |  |
| CCCCCC(=O)N[C@H]1CCc2cc(OC)c(OC)c(OC)c2-c2ccc(OC)c(=O)cc21 | 3.37 | 7.02 | 7.1 | 2.1 | 1 | Active | 2060 | Active |  | 6.4 | 18 | 0.39 |  | Active |  |  |  |  |
| CCCCCCCCCC(=O)N[C@H]1CCc2cc(OC)c(OC)c(OC)c2-c2ccc(OC)c(=O)cc21 | 0.143 | 29 | 0.242 | 1.7 | <0.1 |  | 700 | Active |  | 17.9 | 25 | <0.1 | Active | Active | Active | Active | inactive |  |
| COc1cc2c(c(OC)c1OC)-c1ccc(OC)c(=O)cc1[C@@H](NC(C)=O)CC2 [COLCHICINE] |  |  |  |  |  |  |  |  |  |  | 14 |  |  | Active |  |  |  | 8 |
| CCCCCCCCCCCCCCCCCC(=O)N[C@H]1CCc2cc(OC)c(OC)c(OC)c2-c2ccc(OC)c(=O)cc21 | 1010 | 120 | 766 | 0.8 | 6.4 |  |  |  |  |  |  |  |  |  |  |  |  |  |
| CCCCCCCCCCC(=O)N[C@H]1CCc2cc(OC)c(OC)c(OC)c2-c2ccc(OC)c(=O)cc21 | 0.041 | 1.77 | 0.17 | 4.2 | 0.1 |  | 790 | Active |  | 18.4 | 62 | <0.1 | Active |  |  |  |  | 41 |
| CCCC(=O)N[C@H]1CCc2cc(OC)c(OC)c(OC)c2-c2ccc(OC)c(=O)cc21 | 10 | 13 | 13.5 | 1.4 | 1 |  |  |  |  |  |  |  |  |  |  |  |  |  |
| CCCCCCCCCCCCCC(=O)N[C@H]1CCc2cc(OC)c(OC)c(OC)c2-c2ccc(OC)c(=O)cc21 | 36 | 20 | 46 | 1.3 | 2.3 |  |  |  |  |  |  |  |  |  |  |  |  |  |
